From a melting point compilation (Tetko et al.; mined from patent text by program, amines drawn as free bases though some values may be those of a salt)

| Compound | melting point |
| --- | --- |
| Fc1cc(F)cc(Oc2ccc(OCc3ccc(Cl)cc3)c(Cl)c2)c1 | 95.3 °C |
| COC(=O)Nc1nc2cc(S(=O)CC3CC3)ccc2[nH]1 (stereo not drawn) | 223 to 224 °C |
| COc1ccc(CCNCCc2ccc(OC)c(OC)c2)cc1OC | 56 to 58 °C |
| O=S(=O)(C#Cc1ccccc1)c1ccccc1 | 73 °C |
| N#CC(=C(Nc1ccc2c(c1)OCO2)NC1CCC1)S(=O)(=O)c1ccc(Cl)cc1 | 190 °C |
| Cn1ccnc1Sc1ccccc1[N+](=O)[O-] | 117 to 119 °C |
| O[C@H]1c2cc(Oc3ccccn3)ccc2OC[C@H]1Cc1cccnc1 (relative stereo) | 67 to 68 °C |
| CN1C(=O)N(c2ccc([N+](=O)[O-])c(C(F)(F)F)c2)C(=O)C1(C)C | 116 °C |
| Cc1csc(NC(=O)C(C(=O)OC(C)C)=C2SCCS2)n1 | 161 to 162 °C |
| Sc1nsnc1C12CN3CC1C2C3 | 205 to 207 °C |
| N#Cc1c(N2CCCC2)nsc1N | 198 °C |
| COc1ccc(CCNc2nc(N)c3nc(-c4ccco4)oc3n2)cc1OC | 155 to 158 °C |
| O=COCc1ccc2c(c1)C(C(Cl)(Cl)Cl)OC(C(Cl)(Cl)Cl)O2 (stereo not drawn) | 75 to 77 °C |
| CC(C(O)c1ccc2c(c1)CCCS2)N1CCC(n2c(=O)[nH]c3ccccc32)CC1 (stereo not drawn) | 232 to 235 °C |
| COC(=O)NCCCCn1c(=O)c2c(C)nc3cccc1n32 | 175 to 176 °C |
| CCc1c(NC(=O)c2ccc(Br)cc2)ccc2cc(CO)cnc12 | 202 to 204 °C |
| Cc1ccc(-n2c(=O)n(OCc3ccccc3)c(=O)c3cc(F)c(N4CCCC4)nc32)cc1 | 192 to 194 °C |
| CC(=O)C(=Cc1cccc([N+](=O)[O-])c1)P1(=O)OCCCO1 | 144 to 146 °C |
| FC(F)(F)C(Cc1ccccc1)c1ccccc1 (stereo not drawn) | 58 to 61 °C |
| Cc1c(O)ccc2c1C(C)(C)CC2 | 92 to 93 °C |
| Cc1cccc(-c2nc3cccnn3c2-c2ccnc(NC(=O)c3ccc(Cl)cc3)c2)c1 | 211 to 212 °C |
| O=C1c2ccc(O)cc2OCN1CCO | 182 to 184 °C |
| O=[N+]([O-])c1ccc2c(C3=CN4CCC3CC4)c[nH]c2c1 | 274 to 276 °C |
| CCOC(=O)C1Oc2ccc(Cl)c(Cl)c2O1 (stereo not drawn) | 58 to 61 °C |

| Compound | melting point |
| --- | --- |
| Clc1ccc(-c2cccnc2)cn1 | 113 to 115 °C |
| CCC(=N)NC(=O)Nc1ccc(Cl)cc1 | 191 to 192 °C |
| COc1ccc(-c2c(-c3cc(OC)c(OC)c(OC)c3)ncn2-c2cc(OC)c(OC)c(OC)c2)cc1O | 154 to 156 °C |
| CC1Cc2c(cc(O)cc2C(=O)O)O1 (stereo not drawn) | 225 to 227 °C |
| CCOC(=O)c1cn(C(C)c2c(F)cccc2F)nn1 (stereo not drawn) | 118 to 121 °C |
| O=c1[nH]c(-c2c[nH]c3ccccc23)nc2ccc(N3CCOCC3)cc12 | > 300 °C |
| COCc1ccc2sc(C(=O)OC)c(C)c2c1 | 88 to 89 °C |
| NC(=O)C1CCc2c([nH]c3ccc(Cl)cc23)C1 (stereo not drawn) | 203 to 204 °C |
| COC(=O)CCc1cc(C(=O)c2cccc(C(=O)OC)n2)ccc1OC | 97 to 98 °C |
| OC1(C#Cc2cc(Cl)ccc2Cl)CN2CCC1CC2 (stereo not drawn) | 197 to 200 °C |
| CCCCCC(=O)Oc1c(-c2ccc(-c3ccccc3)cc2)nc2ccc(F)cc2c1C(=O)O | 179 to 206 °C |
| Cc1cc(Br)cnc1CCCCNC1=NS(=O)(=O)c2cc(Br)ccc21 | 224 to 232 °C |
| CN(C)CCNc1c2nc3ccccc3c-2n(C)c2ccccc12 | 162 to 164 °C |
| CC1NC(=O)NN=C1c1ccccc1OCc1ccccc1 (stereo not drawn) | 200 to 203 °C |
| COc1ccc(C2=CCN(Cc3n[nH]c4c(F)cccc34)CC2)cc1 | 183 to 185 °C |
| COC(=O)NC(=NS(=O)(=O)NC(C)C)OC(C)C | 62 to 64 °C |
| Cc1noc(NS(=O)(=O)c2ccc(Nc3ccc([N+](=O)[O-])cc3[N+](=O)[O-])cc2)c1C | 187 °C |
| CC(C)(C)OC(=O)NC1Cc2ccccc2C(F)C1O (stereo not drawn) | 98 to 99 °C |
| CCCc1c(OCc2cccn3c(=O)c(CCC(=O)O)cnc23)ccc(C(C)=O)c1O | 210 to 214 °C |
| COc1cc2cnnc(N3CCCC(CO)C3)c2cc1OC (stereo not drawn) | 162 to 165 °C |
| COc1cc(C)cc(OC)c1C(=O)CCl | 82 to 84 °C |
| CCOC(=O)c1cc(N(C)S(C)(=O)=O)c(C)nc1C(=O)OCC | 90 to 93 °C |
| COc1cc2cc(C(N)=O)c(N)nc2cc1OC | 275 °C |
| O=C(O)CC1CCCc2c1n(Cc1ccc(Cl)cc1)c1c(F)cc(F)cc21 (stereo not drawn) | 130 to 131 °C |

The remaining lines, values ahead:

| melting point | Compound |
| --- | --- |
| 152 °C | O=C(NC(=O)c1c(F)cccc1F)Nc1cc(C(F)(F)F)cc(C(F)(F)F)n1 |
| 89 to 91 °C | O=C(O)c1cn(-c2cccc(F)c2)c2c(F)c(F)c(F)cc2c1=O |
| 188 to 189 °C | CC(C)(C)OC(=O)NC1CCN(c2ccc(C#N)cc2)CC1 |
| 173 to 174 °C | CC(=O)N1CC(C)(C)c2c1cc(C)c(O)c2C |
| 190 °C | COc1ccc(-c2[nH]c(-c3ccc(F)cc3)cc2C(=O)N2CCOCC2)cc1OC |
| 77.5 to 79 °C | CC(C)N(CCS(=O)(=O)c1ccc(Cl)cc1)C(=O)Oc1ccccc1 |
| 164 to 165 °C | CCCCc1nc2c(N)nc3ccccc3c2n1CCCCS(C)(=O)=O |
| 168 °C | COc1ccc(-c2ccc3c(c2)CCC3=O)c2c1OCCO2 |
| 305 °C | CCOC(=O)c1ccc(-c2cc3c(NCc4ccc(OC)nc4)ncnc3[nH]2)cc1 |
| 175 to 176 °C | Nc1[nH]ncc1-c1nc(-c2ccco2)n[nH]1 |
| 99.5 to 101 °C | COc1cc(C(=O)c2ccnn2C)c(Cl)c(Cl)c1OC |
| 189 to 190 °C | COCCOc1cc2ncnc(NC3=CC(=O)C(Oc4cccnc4)=CC3=O)c2cc1OC |
| 130 to 133 °C | CC(C(=O)NCCN(C)C)n1c(-c2ccc(Cl)cc2)nc2cccnc21 (stereo not drawn) |
| 124 to 126 °C | CC(=O)NCCC1CCc2ccc3nc(-c4ccccc4)oc3c21 (stereo not drawn) |
| 216 to 218 °C | Cc1nc2c(O)c(CCC(O)c3ccccc3)c(C(=O)N(C)C)cc2n1C (stereo not drawn) |
| 70 to 71 °C | O=C1c2ccccc2C(=O)N1OC/C=C/Cc1ccccc1 |
| 71.5 to 72.5 °C | O=C(O)Cc1ccc(CC2CCCCC2=O)cc1 (stereo not drawn) |
| 142 to 144 °C | O=C1N(CC2CCOCC2)c2ccccc2C12COc1cc3c(cc12)OCO3 (stereo not drawn) |
| 183 to 184 °C | CC1(C)OC(=S)Nc2ccc(-c3cccc(Cl)c3)cc21 |
| 122 to 123 °C | CCCC1CCC2C3CCc4cc(O)c(C=O)cc4C3CCC12C (stereo not drawn) |
| 51 to 54 °C | CN(C)CCCCCOc1ccc(-c2nnc(CSCCOc3ccccc3)o2)cc1 |
| 208 to 210 °C | COCCOc1ccc(-c2cncc(C#N)c2Nc2ccc3[nH]ccc3c2C)cc1OC |
| 153 °C | Cc1ncc(Cn2c(S)nc3ccccc32)o1 |
| 195 to 196 °C | CCN(CC)C(=O)Nc1ccc(S(=O)(=O)N2C(=O)C(N)(c3ccccc3Cl)c3cc(Cl)ccc32)cc1 (stereo not drawn) |
| 172 to 173 °C | CCOCc1nc2c(N)nc(C)c(C)c2n1C1(OC)CCCCC1 |
| 123 to 126 °C | CCc1nc2c(cnn2CC)c(NC2CCOCC2)c1CNC(=O)c1cc(C)cc(C(=O)NCc2ccc(OC)c(Br)c2)c1 |
| 56 to 57 °C | Cc1ccc(S(=O)(=O)OCCC2(OC3CCCCO3)CC2)cc1 (stereo not drawn) |
| 111 to 113 °C | CC(C)CCOc1c(-c2ccc(S(C)(=O)=O)cc2)cnn(CC(F)(F)F)c1=O |

| melting point | Compound |
| --- | --- |
| 115 to 117 °C | NCCc1ccc(Nc2ncc3c(n2)-c2ccccc2C(c2cccc(Br)c2)C3)cc1 (stereo not drawn) |
| 129 to 131 °C | COC(=O)c1ccc(OCC2CC(=O)N(c3ccc(OCCO)cc3)C2)cc1 (stereo not drawn) |
| 133 to 134 °C | CN1C(=O)c2cccnc2N(CCO)c2ccccc21 |
| 174 to 175 °C | CCCC[C@]1(CC)CS(=O)(=O)c2cc(OC)c(OC)cc2[C@@H](c2ccccc2)N1O |
| 87 to 88 °C | Cc1csc(CN(C)C(=O)C23CC4CC(CC(C4)C2)C3)c1 |
| 126 to 128 °C | Cc1nn(-c2c(Cl)cc(C(F)(F)F)cc2Cl)nc1COS(C)(=O)=O |
| 118 to 120 °C | OCCN1CCN(c2cc(Sc3ccc(Cl)cc3)nc(-c3ccccc3)n2)CC1 |
| 230 to 233 °C | COCC(=O)Nc1nc2ccc([N+](=O)[O-])cc2s1 |
| 196 to 198 °C | O=[N+]([O-])c1ccc2sc(-c3cccnc3)nc2c1 |
| 124 to 126 °C | O=C(O)Cc1nc(-c2c(Cl)cccc2Cl)no1 |
| 72 to 73 °C | FC(F)(F)c1ccc(Oc2ccc3nnsc3c2)c(Cl)c1 |
| 169 to 173 °C | CCOC(=O)c1cn2c3c(c(F)c(F)c(F)c3c1=O)C(C(=O)OC(C)(C)C)(C(=O)OC(C)(C)C)CN2C |
| 147 to 149 °C | COc1ccc2c(c1)CCC1CCNC(=O)C(CCNC(C)C)=C21 (stereo not drawn) |
| 206 to 207 °C | Brc1ccccc1P(c1cccc2ccccc12)c1cccc2ccccc12 |
| 75 to 85 °C | CCCc1c(C(=O)N(C)Cc2ccc3c(Br)c(OCc4nnn[nH]4)ccc3c2)cnn1-c1ccccc1 |
| 111 to 112 °C | CCOC(=O)/C=C/c1cn(Cc2ccc(OCc3ccccc3)cc2)cc1-c1ccccc1 |
| 149 to 151 °C | COCCCn1cc(Br)c2c3c(c(-c4ccccc4Cl)cc21)C(=O)NC3=O |
| 134 °C | COc1nc(SC)cc2cnc(-c3ccccc3)n12 |
| 111 to 112 °C | N#CC1=C(Nc2cccc(Cl)c2)CCC1 |
| 146 to 148 °C | CCOC=NC1=C(C#N)C(c2ccc(F)c(Cl)c2)c2ccc3ccccc3c2O1 (stereo not drawn) |
| 107 to 108 °C | Cc1cc(C[C@H]2NC(=O)O[C@H]2c2ccc(F)cc2)cc(OC(F)(F)C(F)F)c1 (racemic) |
| 64 to 66 °C | NS(=O)(=O)c1cc(C(=O)OCC(=O)N2CCC[C@@H]2CO[N+](=O)[O-])c(NCc2ccco2)cc1Cl |
| 249 to 250 °C | CCn1cc(C(=O)O)c(=O)c2c1SC(=NOCC(=O)O)C2 |
| 100 °C | ClCc1nn(-c2ccccc2)c2c1CCCC2 |
| 210 to 212 °C | CC(c1oc2ccccc2c(=O)c1-c1ccc(F)cc1)n1cnc2c(N)ncnc21 (stereo not drawn) |
| 133 to 138 °C | Cc1cc(S(=O)(=O)N2CC(C)CC(C)C2)ccc1[N+](=O)[O-] (stereo not drawn) |
| 228 to 230 °C | COC1(OC)CCN(c2cc3c(cc2F)c(=O)c(C(=O)O)cn3-c2ccc(F)cc2F)C1 |
